Reference: the NIST ThermoML archive (doi:10.1021/je4003916)

Experiment: xn = mol fraction of the nth substance listed
Conditions: 101 kPa, Liquid; for mass density: Vibrating tube method

COC(=O)CCCCC(=O)OC [dimethyl 1,6-hexanedioate] + CCCCO
viscosity [mPa·s], stabinger viscometer
Conditions	x1 = 0.0999	x1 = 0.2004	x1 = 0.2999	x1 = 0.4003	x1 = 0.4999	x1 = 0.6007	x1 = 0.6996	x1 = 0.7994	x1 = 0.8991	x1 = 1
288.15 K	2.635	2.426	2.384	2.422	2.519	2.66	2.884	3.08	3.379	3.751
293.15 K	2.322	2.147	2.114	2.149	2.237	2.361	2.556	2.723	2.977	3.289
298.15 K	2.057	1.911	1.886	1.92	2.003	2.11	2.287	2.425	2.649	2.91
303.15 K	1.837	1.716	1.699	1.732	1.805	1.902	2.06	2.183	2.374	2.604
308.15 K	1.646	1.546	1.536	1.569	1.636	1.724	1.868	1.975	2.144	2.343
313.15 K	1.481	1.4	1.396	1.428	1.491	1.572	1.704	1.797	1.947	2.121
318.15 K	1.338	1.272	1.273	1.306	1.365	1.44	1.562	1.645	1.778	1.933
323.15 K	1.229	1.176	1.179	1.214	1.268	1.339	1.456	1.528	1.648	1.79

C1CCOC1 [tetrahydrofuran] + CCCCO
Conditions	mass density [kg/m3]	viscosity [mPa·s]
288.15 K, x1 = 0.1001	820.7	2.377
288.15 K, x1 = 0.2003	828.11	1.788
288.15 K, x1 = 0.3	835.61	1.416
288.15 K, x1 = 0.4003	843.28	1.15
288.15 K, x1 = 0.5	851.03	0.962
288.15 K, x1 = 0.6001	858.98	0.836
288.15 K, x1 = 0.7003	867.19	0.723
288.15 K, x1 = 0.8006	875.64	0.642
288.15 K, x1 = 0.9002	884.34	0.578
288.15 K, x1 = 1	893.29	0.522
293.15 K, x1 = 0.1001	816.75	2.111
293.15 K, x1 = 0.2003	823.99	1.612
293.15 K, x1 = 0.3	831.34	1.292
293.15 K, x1 = 0.4003	838.84	1.061
293.15 K, x1 = 0.5	846.43	0.895
293.15 K, x1 = 0.6001	854.21	0.785
293.15 K, x1 = 0.7003	862.27	0.683
293.15 K, x1 = 0.8006	870.54	0.61
293.15 K, x1 = 0.9002	879.08	0.555
293.15 K, x1 = 1	887.86	0.502
298.15 K, x1 = 0.1001	812.77	1.882
298.15 K, x1 = 0.2003	819.86	1.46
298.15 K, x1 = 0.3	827.04	1.184
298.15 K, x1 = 0.4003	834.38	0.979
298.15 K, x1 = 0.5	841.8	0.834
298.15 K, x1 = 0.6001	849.43	0.736
298.15 K, x1 = 0.7003	857.31	0.645
298.15 K, x1 = 0.8006	865.41	0.579
298.15 K, x1 = 0.9002	873.78	0.528
298.15 K, x1 = 1	882.4	0.48
303.15 K, x1 = 0.1001	808.76	1.687
303.15 K, x1 = 0.2003	815.69	1.331
303.15 K, x1 = 0.3	822.71	1.087
303.15 K, x1 = 0.4003	829.89	0.908
303.15 K, x1 = 0.5	837.15	0.779
303.15 K, x1 = 0.6001	844.61	0.692
303.15 K, x1 = 0.7003	852.32	0.61
303.15 K, x1 = 0.8006	860.26	0.55
303.15 K, x1 = 0.9002	868.46	0.502
303.15 K, x1 = 1	876.91	0.459
308.15 K, x1 = 0.1001	804.73	1.517
308.15 K, x1 = 0.2003	811.49	1.215
308.15 K, x1 = 0.3	818.36	1
308.15 K, x1 = 0.4003	825.36	0.843
308.15 K, x1 = 0.5	832.46	0.728
308.15 K, x1 = 0.6001	839.75	0.652
308.15 K, x1 = 0.7003	847.3	0.576
308.15 K, x1 = 0.8006	855.06	0.521
308.15 K, x1 = 0.9002	863.09	0.478
308.15 K, x1 = 1	871.38	0.44
313.15 K, x1 = 0.1001	800.66	1.368
313.15 K, x1 = 0.2003	807.26	1.111
313.15 K, x1 = 0.3	813.96	0.922
313.15 K, x1 = 0.4003	820.81	0.782
313.15 K, x1 = 0.5	827.74	0.681
313.15 K, x1 = 0.6001	834.86	0.608
313.15 K, x1 = 0.7003	842.24	0.543
313.15 K, x1 = 0.8006	849.83	0.494
313.15 K, x1 = 0.9002	857.7	0.454
313.15 K, x1 = 1	865.81	0.418
318.15 K, x1 = 0.1001	796.55	1.238
318.15 K, x1 = 0.2003	802.99	1.019
318.15 K, x1 = 0.3	809.53	0.852
318.15 K, x1 = 0.4003	816.21	0.727
318.15 K, x1 = 0.5	822.98	0.637
318.15 K, x1 = 0.6001	829.93	0.571
318.15 K, x1 = 0.7003	837.14	0.513
318.15 K, x1 = 0.8006	844.56	0.466
318.15 K, x1 = 0.9002	852.25	0.428
318.15 K, x1 = 1	860.2	0.396
323.15 K, x1 = 0.1001	792.4	1.139
323.15 K, x1 = 0.2003	798.67	0.949
323.15 K, x1 = 0.3	805.05	0.795
323.15 K, x1 = 0.4003	811.57	0.683
323.15 K, x1 = 0.5	818.17	0.599
323.15 K, x1 = 0.6001	824.96	0.546
323.15 K, x1 = 0.7003	832	0.487
323.15 K, x1 = 0.8006	839.25	0.444
323.15 K, x1 = 0.9002	846.77	0.41
323.15 K, x1 = 1	854.55	0.384
